System: healthy male alcohol drinkers
Experiment: Phase 1 single-ascending-dose study of compound (2) coadministered with ethanol: safety
Type: in vivo, human
Method: This was a single-center, randomized, double-blind, placebo-controlled, single-ascending-dose cohort study to evaluate the safety and tolerability of the coadministration of up to 6 dose levels of compound (2) (25 mg, 50 mg, 100 mg, 200 mg, 400 mg and 600 mg) and EtOH in healthy male alcohol drinkers.
Within 27 days of the medical screening visit, subjects were enrolled and attended an inpatient Qualification Phase in which they received up to 5 standard drinks (14 grams of EtOH each; oral solution of vodka containing 40% [v/v] EtOH, mixed with a non-carbonated beverage, one drink every 30 minutes) to evaluate their tolerance to repeat administration to ensure they could safely tolerate the planned EtOH treatment. A minimum washout interval of 44 hours was performed between initiation of the last EtOH administration in the Qualification Phase and study drug administration in the Treatment Phase.
Following qualification, eligible subjects were enrolled and randomized to receive compound (2) or placebo in a 3:1 fashion in each of 6 cohorts (8 subjects per cohort). As a safety precaution, no more than 4 subjects were administered study drug on any given day. Planned compound (2) dose levels included doses of 25 mg, 50 mg, 100 mg, 200 mg, 400 mg, and 600 mg. Study drug administration occurred approximately 1 hour following ingestion of a standardized (moderate-fat) meal. Approximately 2 hours after receiving the study drug, subjects began a session of repeat EtOH administration, during which they could receive up to 5 doses of EtOH (14 grams each, approximately 1 standard drink) every 30 minutes, or until a stopping criterion applied. Safety assessments, pharmacodynamic assessments and pharmacokinetic blood sample collections were obtained up to 48 hours post-dose. Subjects were discharged after 48-hour post-dose procedures were completed and the investigator deemed it safe to do so. Subjects returned for the safety follow-up visit approximately 7 (±2) days following discharge from the Treatment Phase or after early discontinuation from the study.
The primary endpoints included frequency and severity of adverse events (AEs), ethanol reaction (ER) scores and flushing, laboratory values, vital signs, and electrocardiograms (ECGs).
Subjects' ER scores and flushing were summarized descriptively by timepoint, category and treatment. In addition, flushing, ER heat sensation and ER palpitation were compared between each of the active doses and placebo using a mixed-effect model for repeated measures (MMRM) analysis with treatment, visit, and treatment by visit as fixed effects and baseline as a covariate. The actual value was used as the dependent variable and visit included pre-EtOH, 30 minutes, 60 minutes, 90 minutes, 120 minutes, 150 minutes and 3 hours relative to the first EtOH administration in Treatment Phase. The variance-covariance matrix was assumed to be unstructured. […] Results were presented as least square means (LSMEANS), treatment differences in LSMEANS, 95% confidence intervals (CI) and p-values.
Vital signs measurements (respiratory rate, systolic and diastolic blood pressure, and heart rate) were summarized by treatment and visit. Heart rate and diastolic blood pressure were also compared between each of the active doses and placebo using an MMRM analysis with treatment, visit, and treatment by visit as fixed effects and baseline as a covariate.
Twelve-lead ECG results were summarized by timepoint and treatment, and frequencies (numbers and percentages) were calculated for the overall evaluation. Concomitant medications, clinical laboratory evaluations (raw data and change from baseline, as applicable) and physical examination findings were listed.

[1] = 200 mg, 135 min after first EtOH
[2] = 400 mg, 15 min after first EtOH
[3] = 400 mg, 45 min after first EtOH
[4] = 400 mg, 75 min after first EtOH
[5] = 400 mg, 105 min after first EtOH
[6] = 400 mg, 135 min after first EtOH
[7] = 600 mg, 15 min after first EtOH
[8] = 600 mg, 45 min after first EtOH
[9] = 600 mg, 75 min after first EtOH
[10] = 600 mg, 105 min after first EtOH
[11] = 600 mg, 135 min after first EtOH
[12] = Overall (N = 36), 15 min after first EtOH
[13] = Overall (N = 36), 45 min after first EtOH
[14] = Overall (N = 36), 75 min after first EtOH
[15] = Overall (N = 36), 105 min after first EtOH
[16] = Overall (N = 36), 135 min after first EtOH

In the case of O=C(NCc1ccc(-c2ccn(COP(=O)(O)O)c(=O)c2)cc1)c1c(Cl)cccc1Cl [Compound (2), phosphoric acid mono-(4-{4-[(2,6-dichloro-benzoylamino)-methyl]-phenyl}-2-oxo-2H-pyridin-1-ylmethyl) ester], the “Diastolic Blood Pressure, Mean” value [1] is reported as 69.3 mmHg, the “Heart Rate, Mean” value [1] is reported as 96.2 beats/min and the “Systolic Blood Pressure, Mean” value [1] is reported as 124.0 mmHg. The “Diastolic Blood Pressure, Mean” value (200 mg, Pre-EtOH) was 73.8 mmHg, the “Heart Rate, Mean” value (200 mg, Pre-EtOH) was 60.2 beats/min and the “Systolic Blood Pressure, Mean” value (200 mg, Pre-EtOH) was 119.8 mmHg. For the same compound, the “subjects with TEAE of sinus tachycardia” value (200 mg, after EtOH) was “three”, the “subjects with TEAE of tachycardia” value (200 mg, after EtOH) was “one” and the “subjects with TEAE of tachypnea” value (200 mg, after EtOH) was “One”. The “QTcF Interval, Aggregate, Mean” value (200 mg, prior to initiation of repeat EtOH administration session) was 400.2 ms, the “subjects reporting a TEAE” value (400 mg) was 100% and the “Diastolic Blood Pressure, Mean” value [2] was 71.3 mmHg. The “Systolic Blood Pressure, Mean” value [2] was 112.8 mmHg, the “Diastolic Blood Pressure, Mean” value [3] was 71.8 mmHg and the “Heart Rate, Mean” value [3] was 81.2 beats/min. The “Systolic Blood Pressure, Mean” value [3] was 120.0 mmHg, the “QTcF Interval, Aggregate, Mean” value (400 mg, 1 hour after initiation of repeat EtOH administration session) was 394.8 ms and the “Diastolic Blood Pressure, Mean” value [4] was 70.5 mmHg. For the same compound, the “Heart Rate, Mean” value [4] was 82.7 beats/min, the “Systolic Blood Pressure, Mean” value [4] was 119.3 mmHg and the “Diastolic Blood Pressure, Mean” value [5] was 72.2 mmHg. The “Heart Rate, Mean” value [5] was 86.2 beats/min, the “Systolic Blood Pressure, Mean” value [5] was 118.5 mmHg and the “Diastolic Blood Pressure, Mean” value [6] was 71.0 mmHg. For the same compound, the “Heart Rate, Mean” value [6] was 83.7 beats/min, the “Systolic Blood Pressure, Mean” value [6] was 118.8 mmHg and the “Diastolic Blood Pressure, Mean” value (400 mg, Pre-EtOH) was 71.7 mmHg. The “Heart Rate, Mean” value (400 mg, Pre-EtOH) was 61.2 beats/min, the “Systolic Blood Pressure, Mean” value (400 mg, Pre-EtOH) was 115.3 mmHg and the “QTcF Interval, Aggregate, Mean” value (400 mg, prior to initiation of repeat EtOH administration session) was 396.7 ms. For the same compound, the “subjects reporting a TEAE” value (600 mg) was 83.3%, the “Diastolic Blood Pressure, Mean” value [7] was 75.0 mmHg and the “Systolic Blood Pressure, Mean” value [7] was 122.3 mmHg. The “Diastolic Blood Pressure, Mean” value [8] was 75.0 mmHg, the “Heart Rate, Mean” value [8] was 85.2 beats/min and the “Systolic Blood Pressure, Mean” value [8] was 127.3 mmHg. For the same compound, the “QTcF Interval, Aggregate, Mean” value (600 mg, 1 hour after initiation of repeat EtOH administration session) was 394.3 ms, the “Diastolic Blood Pressure, Mean” value [9] was 74.2 mmHg and the “Heart Rate, Mean” value [9] was 91.8 beats/min. The “Systolic Blood Pressure, Mean” value [9] was 130.2 mmHg, the “Diastolic Blood Pressure, Mean” value [10] was 72.0 mmHg and the “Heart Rate, Mean” value [10] was 91.8 beats/min. For the same compound, the “Systolic Blood Pressure, Mean” value [10] was 126.8 mmHg, the “Diastolic Blood Pressure, Mean” value [11] was 74.8 mmHg and the “Heart Rate, Mean” value [11] was 92.3 beats/min. The “Systolic Blood Pressure, Mean” value [11] was 127.7 mmHg, the “Diastolic Blood Pressure, Mean” value (600 mg, Pre-EtOH) was 75.2 mmHg and the “Heart Rate, Mean” value (600 mg, Pre-EtOH) was 61.2 beats/min. The “Systolic Blood Pressure, Mean” value (600 mg, Pre-EtOH) was 120.2 mmHg, the “QTcF Interval, Aggregate, Mean” value (600 mg, prior to initiation of repeat EtOH administration session) was 393.8 ms and the “deaths or serious adverse events” value (25-600 mg oral with up to 5 doses of EtOH (14 g each)) was “no deaths or serious adverse events”. The “Diastolic Blood Pressure, Mean” value [12] was 74.0 mmHg, the “Systolic Blood Pressure, Mean” value [12] was 118.8 mmHg and the “Diastolic Blood Pressure, Mean” value [13] was 73.4 mmHg. The “Heart Rate, Mean” value [13] was 76.6 beats/min, the “Systolic Blood Pressure, Mean” value [13] was 122.0 mmHg and the “QTcF Interval, Aggregate, Mean” value (Overall (N = 36), 1 hour after initiation of repeat EtOH administration session) was 401.1 ms. The “Diastolic Blood Pressure, Mean” value [14] was 72.5 mmHg, the “Heart Rate, Mean” value [14] was 82.9 beats/min and the “Systolic Blood Pressure, Mean” value [14] was 122.3 mmHg. For the same compound, the “Diastolic Blood Pressure, Mean” value [15] was 71.3 mmHg, the “Heart Rate, Mean” value [15] was 85.3 beats/min and the “Systolic Blood Pressure, Mean” value [15] was 121.7 mmHg. For the same compound, the “Diastolic Blood Pressure, Mean” value [16] was 72.8 mmHg, the “Heart Rate, Mean” value [16] was 82.5 beats/min and the “Systolic Blood Pressure, Mean” value [16] was 121.3 mmHg. For the same compound, the “Diastolic Blood Pressure, Mean” value (Overall (N = 36), Pre-EtOH) was 73.4 mmHg, the “Heart Rate, Mean” value (Overall (N = 36), Pre-EtOH) was 59.3 beats/min and the “Systolic Blood Pressure, Mean” value (Overall (N = 36), Pre-EtOH) was 117.3 mmHg. The “QTcF Interval, Aggregate, Mean” value (Overall (N = 36), prior to initiation of repeat EtOH administration session) was 399.4 ms, the “changes in diastolic blood pressure compared with placebo” value (after EtOH administration) was “no significant changes” and the “changes in systolic blood pressure compared with placebo” value (after EtOH administration) was “no significant changes”. The “subjects reporting a TEAE” value (all compound (2)-treated subjects) was 88.9%, the “incidence of flushing and feeling hot compared with placebo” value (all doses) was “higher” and the “compound (2)-treated subjects who did not consume all 5 EtOH administrations due to TEAEs” value (all doses, N = 36) was 5.6%. The flushing (all other doses (50-600 mg)) was “observed”, the tolerability (all treatments) was “generally well tolerated” and the “ER subjective assessment compared with placebo” value (heat sensation, palpitations) was “more likely to report feeling heat sensation and feeling palpitations”.
